Source: patent publication US9682999B2, “Benzofuran compounds for the treatment of hepatitis C virus infections” (Glaxo Group Limited, priority 2011, dated 2017)

Assays:
[1] = In vivo pharmacokinetic study, rat
Procedure: In vivo pharmacokinetic studies were conducted in mouse, rat, dog, or cynomolgus monkey to determine clearance, oral exposure and bioavailability (% F). Solution doses of the compounds were administered intravenously through catheters or orally by gavage. Blood samples were collected at the following time points (n=2 or 3/route/species): 0.083 (IV only), 0.167 (IV only), 0.25, 0.5, 1, 2, 4, 6, 8, 12, and 24 h. Non-compartmental pharmacokinetic parameters were determined using Phoenix Winnonlin 6.1 (Pharsight, Mountain View, Calif.). Bioavailability of the oral formulation of each compound were calculated as the ratio of the oral dose normalized AUCinf to the intravenous dose normalized AUCinf. Results are expressed in Table 2.

[2] = Hepatocyte incubations, metabolic stability; type: in vitro ADME; set-up: dose or concentration left out as unconfirmed; settings: cryopreserved human hepatocytes, 0.25×10^6 cells, up to 120 min, 37 C
Procedure: Hepatocyte incubations were conducted using cryopreserved hepatocytes purchased from CellzDirect (Durham, N.C.). Cryopreserved hepatocytes were removed from liquid nitrogen and thawed according to XenoTech's guidelines listed in “XenoTech Protocol for Thawing Cryopreserved Hepatocytes” using Hepatocyte Isolation Kit K2000 (Dec. 13, 2004). Hepatocytes were diluted to 1 million cells in 1 mL of Williams E media containing 25 mM HEPES buffer and 2 mM Glutamax.
Hepatocyte incubations were carried out in 96-well plates on an Eppendorf shaker at 350 rpm at 37 C. Reaction mixtures consisted of 0.25×10^6 cells and […] test compound (to maintain a 0.05% final DMSO concentration) in a final volume of 0.5 mL. An initial time-point (t0) was collected and subsequent aliquots were collected at 15, 30, 60, 90, and 120 min. Reactions were terminated by transferring […] of the incubation mixture into a 96-well plate containing […] of an organic mixture [acetonitrile and methanol (80:20)] at 4° C. Precipitated protein was removed by centrifugation and the resultant supernatant was transferred to a new 96-well polypropylene plate for LC/MS/MS analysis. Drug-free matrix control and 2 QC standards (phenacetin and propranolol) were included in each experiment and treated in the same manner as test compound.
Metabolic stability expressed as the percentage of parent compound remaining was calculated from the peak area ratio of compound remaining after incubation (tx) compared to the time zero (t0) incubation.
The half-life (t1/2) was calculated using the following equation: […]
Where K is the slope of the ln % remaining vs. time regression. Half-life values were only reported when at least 15% loss of parent compound was observed.

[3] = system: sub-genomic HCV NS3-NS5B replicon genotype 1a (Huh-7 cells); test: Replicon luciferase cell based assay, genotype 1a; settings: Hepatitis C virus; Huh-7 genotype 1a luciferase replicon, 48 hours; read-out: EC50 GT 1a
Procedure: (§1) 150 μL of a 1 mM stock solution in DMSO of each test compound was transferred into in the first column of a 96 well, V-bottom microplate, to give 200 times the top concentration of the required dilution series. Aliquots of 50 μL were added to each well of the remaining rows containing 100 μL of DMSO giving a 1:3 dilution series over ten points. Columns 11 and 12 contained DMSO only for the positive and negative control, respectively. 10 μL of each well were transferred into 90 μL of DMEM medium (Invitrogen #41965-039) supplemented with 5% v/v foetal calf serum, 1% v/v non-essential amino acids solution, 100 units/ml penicillin, 100 μg/ml streptomycin and 2 mM L-glutamine to give 20 times the top concentration of the required dilution series.
(§2) Suspensions were prepared from cultures of Huh-7 cells stably transfected with sub-genomic HCV NS3-NS5B replicons of either genotype 1b (the ET subline described by Pietschmann, T., Lohmann, V., Kaul, A., Krieger, N., Rinck, G., Rutter, G., Strand, D. & Bartenschlager, R., Journal of Virology, 2002, 76, 4008-4021), genotype 1a (subline 1.19 constructed in-house from H77 SG-Neo containing adaptive mutations P1496L and S2204I as described by Blight, K. J., McKeating, J. A., Marcotrigiano, J., and Rice, C. M. Journal of Virology, 2003, 77, 3180-3190), genotype 1b C316N (constructed in-house by site directed mutagenesis of the NS5B gene of the ET subline), or genotype 1a C316Y (constructed in-house by site directed mutagenesis of the NS5B gene of H77 SG-Neo containing adaptive mutations P1496L and S2204I as described by Blight, K. J., McKeating, J. A., Marcotrigiano, J., and Rice, C. M. Journal of Virology, 2003, 77, 3180-3190) linked to a firefly luciferase reporter gene. Monolayers nearing confluency were stripped from growth flasks with versene-trypsin solution and the cells re-suspended in assay medium comprising DMEM. 95 μL of suspension containing either 15,000 cells (genotype 1b luciferase replicon) or 20,000 cells (genotype 1a luciferase replicon) were added to all wells of a 96 well plate (Perkin Elmer, #6005686), except medium controls in column 12 of the assay plate. The cell suspension was dosed with 5 μL of compound solution and the plate was incubated for 48 hours at 37° C. in a 5% CO2 atmosphere.
(§3) For toxicity the cells in one plate were treated with Cell Titer Glo (Promega, #G7573). A solution of Cell Titer Glo was prepared according to the manufacturer's instructions, and 100 μL added to each well. The plate was then read for luminescence on an Envision. For potency a solution of Steady Glo (Promega, #E2550) was prepared according to the manufacturer's instructions and 100 μL added to each well. After a twenty minute incubation the plate was then read for luminescence on an Envision.
(§4) Potency: The luminescence values from all compound-free wells containing cells were averaged to obtain a positive control value. The mean luminescence value from the compound-free wells that had received no cells was used to provide the negative (background) control value. The readings from the wells at each compound concentration were taken and after the subtraction of the mean background from all values, were expressed as a percentage of the positive control signal. The quantifiable and specific reduction of luciferase signal in the presence of a drug is a direct measure of replicon inhibition. BioAssay Enterprise (CamebridgeSoft) with the XC50 module for curve fitting was used to plot the curve of percentage inhibition against compound concentration and derive the 50% inhibitory concentration (EC50) for the compound. EC50 is the effective concentration, that is, the concentration of compound where 50% maximal effect is observed. The EC50 values of two identical plates were averaged. The results are presented in Table 1 as EC50 for genotypes (GT) 1a, 1b, 1b 316N and 1a 316Y.

[4] = system: sub-genomic HCV NS3-NS5B replicon genotype 1a C316Y (Huh-7 cells); test: Replicon luciferase cell based assay, genotype 1a C316Y; settings: Hepatitis C virus, Huh-7, 48 h, read-out: EC50 1a 316Y
Procedure: as §1, §2, §3, §4

[5] = system: sub-genomic HCV NS3-NS5B replicon genotype 1b (Huh-7 cells); test: Replicon luciferase cell based assay, genotype 1b; settings: Hepatitis C virus; Huh-7 genotype 1b luciferase replicon, 48 hours; read-out: EC50 GT1b
Procedure: as §1, §2, §3, §4

[6] = system: sub-genomic HCV NS3-NS5B replicon genotype 1b C316N (Huh-7 cells); test: Replicon luciferase cell based assay, genotype 1b C316N; settings: Hepatitis C virus, Huh-7, 48 h, read-out: EC50 1b 316N
Procedure: as §1, §2, §3, §4

CNC(=O)c1c(-c2ccc(F)cc2)oc2cc(N(Cc3ccc(B(O)O)c(Cl)c3)S(C)(=O)=O)c(C3CC3)cc12 [B]
DNAUC ([1]; Rat): 122 ng·h/mL/mg/kg
T 1/2 ([1]; Rat): 1.1 H
clearance ([1]; rat, blood, intravenous): 33.1 mL/min/kg
Vd ([1]; rat, blood, intravenous, read-out: Vss): 2.5 L/kg
bioavailability ([1]; rat, blood, oral): 23%
half-life [2]: 45 min

CS(=O)(=O)N(c1ccc(B(O)O)c(Cl)c1)c1cc2oc(-c3ccc(Cl)cc3)c(C(N)=O)c2cc1C1CC1 [Example 14, (4-(N-(3-carbamoyl-2-(4-chlorophenyl)-5-cyclopropylbenzofuran-6-yl)methylsulfonamido)-2-chlorophenyl)boronic acid]
EC50 [3]: 1 to 10 nM
EC50 [4]: 11 to 200 nM
EC50 [5]: 1 to 10 nM
EC50 [6]: 1 to 10 nM

CNC(=O)c1c(-c2ccc(F)cc2)oc2cc(N(c3ccc(B(O)O)c(S(C)(=O)=O)c3)S(C)(=O)=O)c(C3CC3)cc12 [Example 16, (4-(N-(5-cyclopropyl-2-(4-fluorophenyl)-3-(methylcarbamoyl)benzofuran-6-yl)methylsulfonamido)-2-(methylsulfonyl)phenyl)boronic acid]
EC50 [3]: 1 to 10 nM
EC50 [4]: 11 to 200 nM
EC50 [5]: 1 to 10 nM
EC50 [6]: 11 to 200 nM

CNC(=O)c1c(-c2ccc(F)cc2)oc2cc(N(c3ccc(OCB(O)O)c(Cl)c3)S(C)(=O)=O)c(C3CC3)cc12 [Example 19, ((2-Chloro-4-(N-(5-cyclopropyl-2-(4-fluorophenyl)-3-(methylcarbamoyl)benzofuran-6-yl)methylsulfonamido)phenoxy)methyl)boronic acid]
EC50 [3]: 1 to 10 nM
EC50 [4]: 1 to 10 nM
EC50 [5]: 1 to 10 nM
EC50 [6]: 1 to 10 nM

CNC(=O)c1c(-c2ccc(F)cc2)oc2cc(N(c3ccc4c(c3)COB4O)S(C)(=O)=O)c(C3CC3)cc12 [Example 20, 5-Cyclopropyl-2-(4-fluorophenyl)-6-(N-(1-hydroxy-1,3-dihydrobenzo[c][1,2]oxaborol-5-yl)methylsulfonamido)-N-methylbenzofuran-3-carboxamide]
EC50 [3]: 1 to 10 nM
EC50 [4]: 11 to 200 nM
EC50 [5]: 1 to 10 nM
EC50 [6]: 1 to 10 nM

CNC(=O)c1c(-c2ccc(Cl)cc2)oc2cc(N(c3ccc(B(O)O)c(C#N)c3)S(C)(=O)=O)c(C3CC3)cc12 [Example 21, (4-(N-(2-(4-Chlorophenyl)-5-cyclopropyl-3-(methylcarbamoyl)benzofuran-6-yl)methylsulfonamido)-2-cyanophenyl)boronic acid]
EC50 [3]: 1 to 10 nM
EC50 [4]: 1 to 10 nM
EC50 [5]: 1 to 10 nM
EC50 [6]: 1 to 10 nM

CNC(=O)c1c(-c2ccc(F)cc2)oc2cc(N(c3ccc(B4OC(C)(C)C(C)(C)O4)c(C)c3)S(C)(=O)=O)c(C3CC3)cc12 [Example 22, 5-Cyclopropyl-2-(4-fluorophenyl)-N-methyl-6-(N-(3-methyl-4-(4,4,5,5-tetramethyl-1,3,2-dioxaborolan-2-yl)phenyl)methylsulfonamido)benzofuran-3-carboxamide]
EC50 [3]: 1 to 10 nM
EC50 [4]: 200 to 1000 nM
EC50 [5]: 1 to 10 nM
EC50 [6]: 1 to 10 nM

CNC(=O)c1c(-c2ccc(F)cc2)oc2cc(N(c3ccc(CCB(O)O)c(Cl)c3)S(C)(=O)=O)c(C3CC3)cc12 [Example 23, (2-Chloro-4-(N-(5-cyclopropyl-2-(4-fluorophenyl)-3-(methylcarbamoyl)benzofuran-6-yl)methylsulfonamido)phenethyl)boronic acid]
EC50 [3]: 1 to 10 nM
EC50 [4]: 11 to 200 nM
EC50 [5]: 1 to 10 nM
EC50 [6]: 11 to 200 nM

CNC(=O)c1c(-c2ccc(F)cc2)oc2cc(N(c3cc(F)c4c(c3)COB4O)S(C)(=O)=O)c(C3CC3)cc12 [Example 24, 5-Cyclopropyl-6-(N-(7-fluoro-1-hydroxy-1,3-dihydrobenzo[c][1,2]oxaborol-5-yl)methylsulfonamido)-2-(4-fluorophenyl)-N-methylbenzofuran-3-carboxamide]
EC50 [3]: 1 to 10 nM
EC50 [4]: 11 to 200 nM
EC50 [5]: 1 to 10 nM
EC50 [6]: 1 to 10 nM

CNC(=O)c1c(-c2ccc(F)cc2)oc2cc(N(c3ccc(C4COB(O)C4)c(Cl)c3)S(C)(=O)=O)c(C3CC3)cc12 (centres unmarked) [Example 25, 6-(N-(3-Chloro-4-(2-hydroxy-1,2-oxaborolan-4-yl)phenyl)methylsulfonamido)-5-cyclopropyl-2-(4-fluorophenyl)-N-methylbenzofuran-3-carboxamide]
EC50 [3]: 1 to 10 nM
EC50 [4]: 11 to 200 nM
EC50 [5]: 1 to 10 nM
EC50 [6]: 11 to 200 nM

CNC(=O)c1c(-c2ccc(F)cc2)oc2cc(N(c3cccc(CCB(O)O)c3)S(C)(=O)=O)c(C3CC3)cc12 [Example 26, (3-(N-(5-Cyclopropyl-2-(4-fluorophenyl)-3-(methylcarbamoyl)benzofuran-6-yl)methylsulfonamido)phenethyl)boronic acid]
EC50 [3]: 1 to 10 nM
EC50 [4]: 200 to 1000 nM
EC50 [5]: 1 to 10 nM
EC50 [6]: 11 to 200 nM

CNC(=O)c1c(-c2ccc(F)cc2)oc2cc(N(c3ccc(C4CCB(O)O4)c(Cl)c3)S(C)(=O)=O)c(C3CC3)cc12 (centres unmarked) [Example 27, 6-(N-(3-Chloro-4-(2-hydroxy-1,2-oxaborolan-5-yl)phenyl)methylsulfonamido)-5-cyclopropyl-2-(4-fluorophenyl)-N-methylbenzofuran-3-carboxamide]
EC50 [3]: 1 to 10 nM
EC50 [4]: 11 to 200 nM
EC50 [5]: 1 to 10 nM
EC50 [6]: 11 to 200 nM
